Measured values from patent publication US9770407B2 (Lundbeck Pharmaceuticals LLC, priority 2005, dated 2017).
In brackets after ≈: the same amount, converted by molar mass. Several values for one entry are separate records, joined by “and”; a condition that tells them apart may be missing. Identical values can stand only once.

Experiments:
[1] = Phase solubility of CBZ in aqueous Captisol and aqueous Cavitron; format: physicochemical; settings: for Measured CBZ conc: ambient laboratory temperature
Protocol: The percent weight/volume cyclodextrin solutions were prepared by adding the appropriate amount of cyclodextrin to a flask and filling to the desired total volume (10 mL) with water, as shown in the following Table 4. An excess of carbamazepine was added to each eppendorf tube. Appropriate vehicles were added to each tube and the final volumes were 1 mL. The solubility of CBZ was determined at ambient laboratory temperatures in various concentrations of aqueous Captisol and aqueous Cavitron (brand names of modified cyclodextrins useful in the present invention). The drug substance was added to a microcentrifuge tube and the appropriate vehicle was added. Periodically, the samples were centrifuged and then an aliquot was removed from the supernatant, diluted as necessary and assayed by HPLC to determine the concentration. The phase solubility was evaluated at least three times during each experiment to insure that the mixture achieved equilibrium. […] The solubilities reported in Table 5 are the average of two or three concentration determinations obtained during the respective time course.

[2] = Estimated dissociation of CBZ from the inclusion complex on dilution in blood; settings: based on simulations of dilution effects; assumes no interaction from endogenous agents
Text: These relatively weak associations are within the range (100-20,000 M^−1) of those commonly seen with drug: cyclodextrin complexes (Crit. Rev. Ther. Drug Carrier Systems, 14 (1): 1-104, 1997).
The minimal volume of distribution of a drug administered intravenously is based on the plasma volume, which is approximately 5% of the body weight. Therefore, in a 70 kg subject, the plasma volume is approximately 3.5 L. Alternatively, one could assume that the volume of distribution is extracellular water, accounting for approximately 30% of the total body weight, in which case the volume of distribution is about 21 L.
If a 20 mL dose were administered, the dilution ranges from 175-1,050-fold.
Based on the simulations of dilution effects, it appears that 70-95% of the CBZ will immediately dissociate from the inclusion complex in the blood if one assumes no interaction from endogenous agents.

NC(=O)N1c2ccccc2C=Cc2ccccc21 [Carbamazepine, 5H-dibenz[b,f]azepine-5-carboxamide]
Measured CBZ conc ([1]; Captisol 0% w/v, CBZ source Orgamol): 0.2 mg/mL
Measured CBZ conc ([1]; Captisol 0% w/v, CBZ source Spectrum): 0.2 mg/mL
Measured CBZ conc, Ave ([1]; Captisol 0% w/v, average of the three determinations): 0.2 mg/mL
Measured CBZ conc ([1]; Captisol 5% w/v, CBZ source Orgamol, listed as CBZ): 2.2 mg/mL and 2.4 mg/mL
Measured CBZ conc ([1]; Captisol 5% w/v, CBZ source Spectrum): 2.4 mg/mL
Measured CBZ conc, Ave ([1]; Captisol 5% w/v, average of the three determinations): 2.3 mg/mL
Measured CBZ conc ([1]; Captisol 10% w/v, CBZ source Orgamol, listed as CBZ): 4.1 mg/mL and 4.6 mg/mL
Measured CBZ conc ([1]; Captisol 10% w/v, CBZ source Spectrum): 6.2 mg/mL
Measured CBZ conc, Ave ([1]; Captisol 10% w/v, average of the three determinations): 5.0 mg/mL
Measured CBZ conc ([1]; Captisol 15% w/v, CBZ source Orgamol, listed as CBZ): 6.4 mg/mL and 7.7 mg/mL
Measured CBZ conc ([1]; Captisol 15% w/v, CBZ source Spectrum): 6.9 mg/mL
Measured CBZ conc, Ave ([1]; Captisol 15% w/v, average of the three determinations): 7.0 mg/mL
Measured CBZ conc ([1]; Captisol 20% w/v, CBZ source Orgamol, listed as CBZ): 9.2 mg/mL and 10.3 mg/mL
Measured CBZ conc ([1]; Captisol 20% w/v, CBZ source Spectrum): 9.4 mg/mL
Measured CBZ conc, Ave ([1]; Captisol 20% w/v, average of the three determinations): 9.6 mg/mL
Measured CBZ conc ([1]; Captisol 25% w/v, CBZ source Orgamol, listed as CBZ): 11.4 mg/mL and 12.3 mg/mL
Measured CBZ conc ([1]; Captisol 25% w/v, CBZ source Spectrum): 11.8 mg/mL
Measured CBZ conc, Ave ([1]; Captisol 25% w/v, average of the three determinations): 11.8 mg/mL
Measured CBZ conc ([1]; Captisol 30% w/v, CBZ source Orgamol, listed as CBZ): 13.5 mg/mL and 15.2 mg/mL
Measured CBZ conc ([1]; Captisol 30% w/v, CBZ source Spectrum): 14.6 mg/mL
Measured CBZ conc, Ave ([1]; Captisol 30% w/v, average of the three determinations): 14.4 mg/mL
Measured CBZ conc ([1]; Captisol 35% w/v, CBZ source Orgamol, listed as CBZ): 15.9 mg/mL and 18.4 mg/mL
Measured CBZ conc ([1]; Captisol 35% w/v, CBZ source Spectrum): 16.3 mg/mL
Measured CBZ conc, Ave ([1]; Captisol 35% w/v, average of the three determinations): 16.9 mg/mL
Measured CBZ conc ([1]; Captisol 40% w/v, CBZ source Orgamol, listed as CBZ): 18.3 mg/mL and 20.8 mg/mL
Measured CBZ conc ([1]; Captisol 40% w/v, CBZ source Spectrum): 19.3 mg/mL
Measured CBZ conc, Ave ([1]; Captisol 40% w/v, average of the three determinations): 19.5 mg/mL
Measured CBZ conc ([1]; Captisol 45% w/v, CBZ source Orgamol, listed as CBZ): 20.6 mg/mL and 22.5 mg/mL
Measured CBZ conc ([1]; Captisol 45% w/v, CBZ source Spectrum): 21.8 mg/mL
Measured CBZ conc, Ave ([1]; Captisol 45% w/v, average of the three determinations): 21.6 mg/mL
Measured CBZ conc ([1]; Captisol 50% w/v, CBZ source Orgamol, listed as CBZ): 22.5 mg/mL and 24.8 mg/mL
Measured CBZ conc ([1]; Captisol 50% w/v, CBZ source Spectrum): 26.6 mg/mL
Measured CBZ conc, Ave ([1]; Captisol 50% w/v, average of the three determinations): 24.6 mg/mL
Measured CBZ conc ([1]; Cavitron 0% w/v, CBZ source Orgamol): 0.2 mg/mL
Measured CBZ conc ([1]; Cavitron 0% w/v, CBZ source Spectrum): 0.3 mg/mL
Measured CBZ conc ([1]; Cavitron 5% w/v, CBZ source Orgamol, listed as CBZ): 2.7 mg/mL and 3.0 mg/mL
Measured CBZ conc ([1]; Cavitron 5% w/v, CBZ source Spectrum): 3.8 mg/mL
Measured CBZ conc, Ave ([1]; Cavitron 5% w/v, average of the three determinations): 3.2 mg/mL
Measured CBZ conc ([1]; Cavitron 10% w/v, CBZ source Orgamol, listed as CBZ): 5.4 mg/mL and 5.6 mg/mL
Measured CBZ conc ([1]; Cavitron 10% w/v, CBZ source Spectrum): 4.1 mg/mL
Measured CBZ conc, Ave ([1]; Cavitron 10% w/v, average of the three determinations): 5.0 mg/mL
Measured CBZ conc ([1]; Cavitron 15% w/v, CBZ source Orgamol, listed as CBZ): 8.2 mg/mL and 8.4 mg/mL
Measured CBZ conc ([1]; Cavitron 15% w/v, CBZ source Spectrum): 12.3 mg/mL
Measured CBZ conc, Ave ([1]; Cavitron 15% w/v, average of the three determinations): 9.6 mg/mL
Measured CBZ conc ([1]; Cavitron 20% w/v, CBZ source Orgamol, listed as CBZ): 10.9 mg/mL and 11.1 mg/mL
Measured CBZ conc ([1]; Cavitron 20% w/v, CBZ source Spectrum): 16.4 mg/mL
Measured CBZ conc, Ave ([1]; Cavitron 20% w/v, average of the three determinations): 12.8 mg/mL
Measured CBZ conc ([1]; Cavitron 25% w/v, CBZ source Orgamol, listed as CBZ): 14.0 mg/mL and 14.3 mg/mL
Measured CBZ conc ([1]; Cavitron 25% w/v, CBZ source Spectrum): 14.8 mg/mL
Measured CBZ conc, Ave ([1]; Cavitron 25% w/v, average of the three determinations): 14.4 mg/mL
Measured CBZ conc ([1]; Cavitron 30% w/v, CBZ source Orgamol, listed as CBZ): 15.9 mg/mL and 16.2 mg/mL
Measured CBZ conc ([1]; Cavitron 30% w/v, CBZ source Spectrum): 17.9 mg/mL
Measured CBZ conc, Ave ([1]; Cavitron 30% w/v, average of the three determinations): 16.7 mg/mL
Measured CBZ conc ([1]; Cavitron 35% w/v, CBZ source Orgamol, listed as CBZ): 18.1 mg/mL and 19.9 mg/mL
Measured CBZ conc ([1]; Cavitron 35% w/v, CBZ source Spectrum): 20.7 mg/mL
Measured CBZ conc, Ave ([1]; Cavitron 35% w/v, average of the three determinations): 19.6 mg/mL
Measured CBZ conc ([1]; Cavitron 40% w/v, CBZ source Orgamol, listed as CBZ): 22.5 mg/mL and 22.0 mg/mL
Measured CBZ conc ([1]; Cavitron 40% w/v, CBZ source Spectrum): 23.2 mg/mL
Measured CBZ conc, Ave ([1]; Cavitron 40% w/v, average of the three determinations): 22.6 mg/mL
Measured CBZ conc ([1]; Cavitron 45% w/v, CBZ source Orgamol, listed as CBZ): 25.5 mg/mL and 25.7 mg/mL
Measured CBZ conc ([1]; Cavitron 45% w/v, CBZ source Spectrum): 27.3 mg/mL
Measured CBZ conc, Ave ([1]; Cavitron 45% w/v, average of the three determinations): 26.2 mg/mL
Measured CBZ conc ([1]; Cavitron 50% w/v, CBZ source Orgamol, listed as CBZ): 27.8 mg/mL and 28.0 mg/mL
Measured CBZ conc ([1]; Cavitron 50% w/v, CBZ source Spectrum): 31.5 mg/mL
Measured CBZ conc, Ave ([1]; Cavitron 50% w/v, average of the three determinations): 29.1 mg/mL
solubility thermodynamic ([1]; aqueous Cavitron, water, thermodynamic from solid, Cavitron 0% w/v, average of the three determinations, read-out: Measured CBZ conc, Ave): 200 µg/mL (≈ 846 µM)
CBZ solubility in Cavitron as compared to Captisol ([1]; at most cyclodextrin concentrations, FIG. 1A): marginally improved in Cavitron
CBZ that will immediately dissociate from the inclusion complex in the blood [2]: 70-95%
